Results as given in US20090297566A1, “Oxygen-impervious packaging with optional oxygen scavenger, stabilized thyroid hormone compositions and methods for storing thyroid hormone pharmaceutical compositions” (priority 2004, published 2009).

Experiments:
[1] = Effects of desiccation and oxygen on levothyroxine sodium raw material, forced degradation at 60°C, potency; assay type: physicochemical; details: for % Potency: raw material
Protocol: (§1) This study investigated the effects of humidity and oxygen on the storage of levothyroxine sodium raw material under forced degradation conditions (60° C.).
(§2) High temperature and humidity was known to contribute to potency loss of levothyroxine sodium. Thus, a desiccant was added to the packaging create a low moisture environment to test the effect of reduced humidity upon the shelf life of the product. This study also used a FreshPax Pharma O2 Absorbing Packet as an oxygen scavenger. This oxygen scavenger reduced the level of oxygen in the package to less than 1%. All samples were packaged in 40 cc HDPE bottles.
(§3) • 1. 60 g of levothyroxine sodium raw material was selected. • 2. The levothyroxine was assayed in duplicate to establish the initial potency under laboratory conditions. • 4. The samples were preparation under laboratory conditions. • 5. 3 g was distributed to each of eighteen 40 cc bottles. • 6. 1 g desiccant was added to each of six bottles. • 7. A single FreshPax Pharma O2 Absorbing Packet was added to each of six bottles. • 8. The remaining six bottles were packaged without desiccant or a packet of FreshPax Pharma O2. • 9. The bottles were capped and sealed using a Compak Jr Sealer and appropriate CRC caps. • 10. All bottles were placed in a 60° C. oven. • 11. The samples were tested for potency, as described in Example 2 and water content at 1-week intervals for three weeks, with a previously unopened sample bottle being tested at each interval. Potency analysis was conducted in duplicate weighings from each bottle correcting for actual water content.

[2] = Water content of levothyroxine sodium raw material during forced degradation at 60°C; assay type: physicochemical; details: for % H2O: raw material
Protocol: as §1, §2, §3

[3] = raw material with FreshPax Pharma O2 packet, 60°C, three weeks
[4] = 3 g in 40 cc HDPE bottle, Initial
[5] = B: FreshPax Pharma O2 packet, 60°C, 1 wk
[6] = B: FreshPax Pharma O2 packet, 60°C, 2 wk
[7] = B: FreshPax Pharma O2 packet, 60°C, 3 wk

## N[C@@H](Cc1cc(I)c(Oc2cc(I)c(O)c(I)c2)c(I)c1)C(=O)[O-].[Na+] [Levothyroxine Sodium, 3,3′,5,5′-tetraiodo-L-thyronine sodium salt]
[1]; raw material packaged with FreshPax Pharma O2 packet, 60°C, three weeks
  stability: stable
[1]; raw material with 1 g silica gel desiccant, 60°C, three-week study
  potency loss: 2.8%
[1]; [3]
  potency loss: 0.4%
[1]; [4]
  % Potency: 99.2%
[1]; A: 1 g silica gel, 60°C, 1 wk
  % Potency: 97.6%
[1]; A: 1 g silica gel, 60°C, 2 wk
  % Potency: 97.2%
[1]; A: 1 g silica gel, 60°C, 3 wk
  % Potency: 96.4%
[1]; [5]
  % Potency: 99.8%
[1]; [6]
  % Potency: 99.5%
[1]; [7]
  % Potency: 98.8%
[1]; C: API alone, 60°C, 1 wk
  % Potency: 99.6%
[1]; C: API alone, 60°C, 2 wk
  % Potency: 98%
[1]; C: API alone, 60°C, 3 wk
  % Potency: 97.3%
[2]; raw material with 1 g silica gel desiccant, 60°C, within the first week
  loss of water content: over 1%
[2]; [3]
  water content deviation from original water content: ≤ 1%
[2]; [4]
  % H2O: 9.9%
[2]; A: 1 g silica gel, 60°C, 1 wk
  % H2O: 8.5%
[2]; A: 1 g silica gel, 60°C, 2 wk
  % H2O: 8.7%
[2]; A: 1 g silica gel, 60°C, 3 wk
  % H2O: 8.8%
[2]; [5]
  % H2O: 9.1%
[2]; [6]
  % H2O: 9.6%
[2]; [7]
  % H2O: 9.6%
[2]; C: API alone, 60°C, 1 wk
  % H2O: 9.4%
[2]; C: API alone, 60°C, 2 wk
  % H2O: 8.9%
[2]; C: API alone, 60°C, 3 wk
  % H2O: 8.8%
